From PubChem BioAssay AID272 (DTP/NCI, 2004)
Several values for one entry are separate records, joined by “and”; a condition that tells them apart may be missing. Equal values may be shown once. Records with an inconclusive call do not appear.

Tested on: Lewis lung carcinoma i.m., BDF1 mice, T/C %
Test: NCI In Vivo Anticancer Drug Screen. Data for tumor model Lewis Lung Carcinoma (intramuscular) in B6D2F1 (BDF1) mice
In short: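 Tumour-bearing mice were dosed with compound, and either their survival or their tumour size was measured. Results were expressed relative to vehicle-treated controls as T/C.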

For `CC(=O)Nc1cc(F)c([N+](=O)[O-])cc1[N+](=O)[O-]`, the T/C (endpoint: median survival time, dose: 1.25 mg/kg/injection, schedule: Q01DX011 (ip), vehicle: saline with Tween-80, higher = longer survival) was 108 % of control, the T/C (endpoint: median survival time, dose: 2.5 mg/kg/injection, schedule: Q01DX011 (ip), vehicle: saline with Tween-80, higher = longer survival) was 104 % of control and the T/C (endpoint: median survival time, dose: 5.0 mg/kg/injection, schedule: Q01DX011 (ip), vehicle: saline with Tween-80, higher = longer survival) was 95 % of control. For the same compound, the T/C (endpoint: median survival time, dose: 10.0 mg/kg/injection, schedule: Q01DX011 (ip), vehicle: saline with Tween-80, higher = longer survival) was 113 % of control.

`CSc1ncnc2c1ncn2C1OC(CO)C(O)C1O` (configuration not stated) was tested, and the T/C (endpoint: mean tumor weight, dose: 3.75 mg/kg/injection, schedule: Q01DX011 (ip), vehicle: saline, higher = larger tumour) was 86 % of control, the T/C (endpoint: mean tumor weight, dose: 7.5 mg/kg/injection, schedule: Q01DX011 (ip), vehicle: saline, higher = larger tumour) was 63 % of control and the T/C (endpoint: median survival time, dose: 3.75 mg/kg/injection, schedule: Q01DX011 (ip), vehicle: saline, higher = longer survival) was 100 % of control. The T/C (endpoint: median survival time, dose: 7.5 mg/kg/injection, schedule: Q01DX011 (ip), vehicle: saline, higher = longer survival) was 90 % of control.

`CCCCNC(C)(C)COC(=O)/C=C/c1ccc(OCCCC)cc1` was tested, and the T/C (endpoint: mean tumor weight (est.), dose: 12.5 mg/kg/injection, schedule: Q01DX011 (ip), vehicle: saline with Tween-80, higher = larger tumour) was 89 % of control, the T/C (endpoint: mean tumor weight (est.), dose: 25.0 mg/kg/injection, schedule: Q01DX011 (ip), vehicle: saline with Tween-80, higher = larger tumour) was 82 % of control and the T/C (endpoint: mean tumor weight (est.), dose: 50.0 mg/kg/injection, schedule: Q01DX011 (ip), vehicle: saline with Tween-80, higher = larger tumour) was 67 % of control. For the same compound, the T/C (endpoint: mean tumor weight (est.), dose: 100.0 mg/kg/injection, schedule: Q01DX011 (ip), vehicle: saline with Tween-80, higher = larger tumour) was 59 % of control, the T/C (endpoint: median survival time, dose: 12.5 mg/kg/injection, schedule: Q01DX011 (ip), vehicle: saline with Tween-80, higher = longer survival) was 88 % of control and the T/C (endpoint: median survival time, dose: 25.0 mg/kg/injection, schedule: Q01DX011 (ip), vehicle: saline with Tween-80, higher = longer survival) was 110 % of control. The T/C (endpoint: median survival time, dose: 50.0 mg/kg/injection, schedule: Q01DX011 (ip), vehicle: saline with Tween-80, higher = longer survival) was 104 % of control and the T/C (endpoint: median survival time, dose: 100.0 mg/kg/injection, schedule: Q01DX011 (ip), vehicle: saline with Tween-80, higher = longer survival) was 98 % of control.

With `COC12C(COC(N)=O)C3=C(C(=O)C(C)=C(N)C3=O)N1CC1C2N1C` (configuration not stated) the T/C (endpoint: median survival time, dose: 2.0 mg/kg/injection, schedule: Q01DX009 (ip), vehicle: Klucel (hydroxypropylcellulose) (HPC), higher = longer survival) was 92 % of control and 105 % of control, the T/C (endpoint: median survival time, dose: 2.0 mg/kg/injection, schedule: Q01DX011 (ip), vehicle: saline + alcohol, higher = longer survival) was 101 % of control and 111 % of control and the T/C (endpoint: median survival time, dose: 4.0 mg/kg/injection, schedule: Q01DX009 (ip), vehicle: Klucel (hydroxypropylcellulose) (HPC), higher = longer survival) was 100 % of control and 106 % of control. The T/C (endpoint: median survival time, dose: 4.0 mg/kg/injection, schedule: Q01DX011 (ip), vehicle: saline + alcohol, higher = longer survival) was 105 % of control.

In the case of `O=c1[nH]c(=O)n(C2CC(O)C(CO)O2)cc1C(F)(F)F` (configuration not stated), the T/C (endpoint: median survival time, dose: 2.5 mg/kg/injection, schedule: Q01DX009 (ip), vehicle: saline, higher = longer survival) is reported as 101 % of control, the T/C (endpoint: median survival time, dose: 10.0 mg/kg/injection, schedule: Q01DX009 (ip), vehicle: saline, higher = longer survival) is reported as 93 % of control and the T/C (endpoint: median survival time, dose: 20.0 mg/kg/injection, schedule: Q01DX009 (ip), vehicle: saline, higher = longer survival) is reported as 94 % of control and 101 % of control.

In the case of `CC1=C2C(=CC(C)(C)[C@@H]2O)C(=O)[C@](C)(O)C12CC2`, the T/C (endpoint: mean tumor weight, dose: 0.1 mg/kg/injection, schedule: Q01DX011 (ip), vehicle: other, higher = larger tumour) is reported as 95 % of control, the T/C (endpoint: mean tumor weight, dose: 0.2 mg/kg/injection, schedule: Q01DX011 (ip), vehicle: other, higher = larger tumour) is reported as 84 % of control and the T/C (endpoint: mean tumor weight, dose: 0.4 mg/kg/injection, schedule: Q01DX011 (ip), vehicle: other, higher = larger tumour) is reported as 21 % of control.

With `CCN1c2ccccc2C(Cl)(c2ccc(N(C)C)cc2)c2ccccc21` the T/C (endpoint: mean tumor weight (est.), dose: 3.13 mg/kg/injection, schedule: Q01DX011 (ip), vehicle: saline, higher = larger tumour) was 121 % of control, the T/C (endpoint: mean tumor weight (est.), dose: 6.25 mg/kg/injection, schedule: Q01DX011 (ip), vehicle: saline, higher = larger tumour) was 50 % of control and the T/C (endpoint: mean tumor weight (est.), dose: 12.5 mg/kg/injection, schedule: Q01DX011 (ip), vehicle: saline, higher = larger tumour) was 47 % of control.

With `CC(=O)OC(C1CO1)C(OC(C)=O)C1CO1` (configuration not stated) the T/C (endpoint: median survival time, dose: 5.0 mg/kg/injection, schedule: Q01DX011 (ip), vehicle: saline, higher = longer survival) was 105 % of control and the T/C (endpoint: median survival time, dose: 10.0 mg/kg/injection, schedule: Q01DX011 (ip), vehicle: saline, higher = longer survival) was 121 % of control.

In the case of `CCCCCCCCCCCCCC[n+]1ccccc1`, the T/C (endpoint: mean tumor weight (est.), dose: 0.06 mg/kg/injection, schedule: Q01DX011 (ip), vehicle: saline, higher = larger tumour) is reported as 82 % of control, the T/C (endpoint: mean tumor weight (est.), dose: 0.07 mg/kg/injection, schedule: Q01DX011 (ip), vehicle: saline, higher = larger tumour) is reported as 46 % of control and the T/C (endpoint: mean tumor weight (est.), dose: 0.12 mg/kg/injection, schedule: Q01DX011 (ip), vehicle: saline, higher = larger tumour) is reported as 80 % of control. The T/C (endpoint: mean tumor weight (est.), dose: 0.13 mg/kg/injection, schedule: Q01DX011 (ip), vehicle: saline, higher = larger tumour) was 42 % of control, the T/C (endpoint: mean tumor weight (est.), dose: 0.5 mg/kg/injection, schedule: Q01DX011 (ip), vehicle: saline, higher = larger tumour) was 84 % of control and the T/C (endpoint: median survival time, dose: 0.06 mg/kg/injection, schedule: Q01DX011 (ip), vehicle: saline, higher = longer survival) was 100 % of control. The T/C (endpoint: median survival time, dose: 0.07 mg/kg/injection, schedule: Q01DX011 (ip), vehicle: saline, higher = longer survival) was 93 % of control, the T/C (endpoint: median survival time, dose: 0.12 mg/kg/injection, schedule: Q01DX011 (ip), vehicle: saline, higher = longer survival) was 100 % of control and the T/C (endpoint: median survival time, dose: 0.13 mg/kg/injection, schedule: Q01DX011 (ip), vehicle: saline, higher = longer survival) was 100 % of control. For the same compound, the T/C (endpoint: median survival time, dose: 0.25 mg/kg/injection, schedule: Q01DX011 (ip), vehicle: saline, higher = longer survival) was 91 % of control and 94 % of control and the T/C (endpoint: median survival time, dose: 0.5 mg/kg/injection, schedule: Q01DX011 (ip), vehicle: saline, higher = longer survival) was 100 % of control.
